# Reference: article PMC8286840, “Identifying SARS-CoV-2 antiviral compounds by screening for small molecule inhibitors of Nsp3 papain-like protease” (Biochemical Journal, 2021)
# Structures can show the parent of a compound that is named as a salt. Where two headings read alike, the source gives them in different places.
# Tests used:
# [1] = biological target: T1, SARS-CoV-2 PLpro (nsp3 1564–1878) (Severe acute respiratory syndrome coronavirus 2, UniProt P0DTD1); test: biochemical; design: FRET-quenched peptide (Pro3) cleavage by PLpro, 10 min pre-incubation, slope over 20 min, normalised to no-compound control; conditions: low concentration screen, read-out: % of control remaining
# [2] = biological target: T1, SARS-CoV-2 PLpro (nsp3 1564–1878); test: biochemical; design: FRET-quenched peptide (Pro3) cleavage by PLpro, 10 min pre-incubation, slope over 20 min, normalised to no-compound control; conditions: high concentration screen, read-out: % of control remaining
smiles,measurement,setting,value
CCCCCCCCCCCCCCCC(=O)C(F)(F)F [PACOCF3],remaining activity at 1.25 µM,[1]; Well no.=4390,102%
same,remaining activity at 3.75 µM,[2]; Well no.=4390,100%
CCCCCCCCCCCCCCCCOC[C@@H](COP(=O)([O-])OCC[N+](C)(C)C)OC(C)=O [PAF C16],remaining activity at 1.25 µM,[1]; Well no.=4445,103%
same,remaining activity at 3.75 µM,[2]; Well no.=4445,98.2%
CCCCCCCC/C=C\CCCCCCCCOC[C@H](COP(=O)([O-])OCC[N+](C)(C)C)OC(C)=O [PAF C18:1],remaining activity at 1.25 µM,[1]; Well no.=4453,99.9%
same,remaining activity at 3.75 µM,[2]; Well no.=4453,99.9%
CN(C)Cc1c(C(=O)NCCOc2ccc(C(=O)NO)cc2)oc2ccccc12 [PCI-24781],remaining activity at 1.25 µM,[1]; Well no.=4840,101%
same,remaining activity at 3.75 µM,[2]; Well no.=4840,100%
N=C(N)c1ccc2nc(-c3cc(CC(=O)N[C@@H](CC(=O)O)C(=O)O)cc(-c4cc(S(N)(=O)=O)ccc4O)c3O)[nH]c2c1 [PCI-27483],remaining activity at 1.25 µM,[1]; Well no.=8564,104%
same,remaining activity at 3.75 µM,[2]; Well no.=8564,102%
C=CC(=O)N1CCC[C@@H](n2nc(-c3ccc(Oc4ccccc4)cc3)c3c(N)ncnc32)C1 [PCI-32765 (Ibrutinib)],remaining activity at 1.25 µM,[1]; Well no.=4649,96%
same,remaining activity at 3.75 µM,[2]; Well no.=4649,88.8%
COc1ccc(Cn2ccc3ccc(C(=O)NO)cc32)cc1 [PCI-34051],remaining activity at 1.25 µM,[1]; Well no.=4710,107%
same,remaining activity at 3.75 µM,[2]; Well no.=4710,103%
O=C(O)c1ccccn1 [PCL 016],remaining activity at 1.25 µM,[1]; Well no.=7107,99.9%
same,remaining activity at 3.75 µM,[2]; Well no.=7107,98.2%
COc1cc2ncnc(Nc3cccc(Br)c3)c2cc1OC [PD153035 HCl],remaining activity at 1.25 µM,[1]; Well no.=4627,104%
same,remaining activity at 3.75 µM,[2]; Well no.=4627,105%
C=CC(=O)Nc1ccc2ncnc(Nc3cccc(Br)c3)c2c1 [PD168393],remaining activity at 1.25 µM,[1]; Well no.=4750,105%
same,remaining activity at 3.75 µM,[2]; Well no.=4750,104%
CCN(CC)CCCCNc1ncc2cc(-c3cc(OC)cc(OC)c3)c(NC(=O)NC(C)(C)C)nc2n1 [PD173074],remaining activity at 1.25 µM,[1]; Well no.=4767,104%
same,remaining activity at 3.75 µM,[2]; Well no.=4767,108%
Cn1c(=O)c(-c2c(Cl)cccc2Cl)cc2cnc(Nc3ccc(N4CCOCC4)cc3)nc21 [PD173952],remaining activity at 1.25 µM,[1]; Well no.=5415,103%
same,remaining activity at 3.75 µM,[2]; Well no.=5415,108%
Cn1c(=O)c(-c2c(Cl)cccc2Cl)cc2cnc(Nc3cccc(C(=O)O)c3)nc21 [PD173955-Analog1],remaining activity at 1.25 µM,[1]; Well no.=2849,101%
same,remaining activity at 3.75 µM,[2]; Well no.=2849,99.7%
CSc1cccc(Nc2ncc3cc(-c4c(Cl)cccc4Cl)c(=O)n(C)c3n2)c1 [PD173955],remaining activity at 1.25 µM,[1]; Well no.=2985,102%
same,remaining activity at 3.75 µM,[2]; Well no.=2985,102%
"COc1cccc(-c2cc(=O)c3ccccc3o2)c1N [PD 98,059]",remaining activity at 1.25 µM,[1]; Well no.=1457,94.9%
same,remaining activity at 3.75 µM,[2]; Well no.=1457,95.8%
"Cc1cccc(C(=O)NCN2CCN(c3ccccc3C#N)CC2)c1 [PD 168,077 maleate]",remaining activity at 1.25 µM,[1]; Well no.=1171,106%
same,remaining activity at 3.75 µM,[2]; Well no.=1171,107%
"N=C1Sc2ccccc2C2=NCCCN12 [PD 404,182]",remaining activity at 1.25 µM,[1]; Well no.=1096,98.8%
same,remaining activity at 3.75 µM,[2]; Well no.=1096,101%
COc1cccc(-c2cc(=O)c3ccccc3o2)c1N [PD 98059 - 2-(2-Amino-3-methoxyphenyl)-4H-1-benzopyran-4-one],remaining activity at 1.25 µM,[1]; Well no.=2348,98.4%
same,remaining activity at 3.75 µM,[2]; Well no.=2348,96.8%
COc1cccc(-c2cc(=O)c3ccccc3o2)c1N [PD 98059],remaining activity at 1.25 µM,[1]; Well no.=2600,94.8%
same,remaining activity at 3.75 µM,[2]; Well no.=2600,92%
OC[C@H]1O[C@@H](n2cnc3c(N[C@@H]4CCc5ccccc54)ncnc32)[C@H](O)[C@@H]1O [PD 117519],remaining activity at 1.25 µM,[1]; Well no.=7763,96.4%
same,remaining activity at 1.25 µM,[1]; Well no.=8169,106%
same,remaining activity at 3.75 µM,[2]; Well no.=7763,102%
same,remaining activity at 3.75 µM,[2]; Well no.=8169,110%
Cc1cc(Cn2cnc3c2C[C@@H](C(=O)O)N(C(=O)C(c2ccccc2)c2ccccc2)C3)ccc1N(C)C [PD 123319 (ditrifluoroacetate)],remaining activity at 1.25 µM,[1]; Well no.=7145,97.1%
same,remaining activity at 1.25 µM,[1]; Well no.=8406,94.2%
same,remaining activity at 3.75 µM,[2]; Well no.=7145,96.9%
same,remaining activity at 3.75 µM,[2]; Well no.=8406,92.3%
O=C(O)/C(S)=C/c1ccc(I)cc1 [PD 150606],remaining activity at 1.25 µM,[1]; Well no.=5432,93.8%
same,remaining activity at 3.75 µM,[2]; Well no.=5432,97.7%
O=C(O)/C(S)=C/c1c[nH]c2ccc(F)cc12 [PD 151746],remaining activity at 1.25 µM,[1]; Well no.=8812,92.8%
same,remaining activity at 3.75 µM,[2]; Well no.=8812,92.9%
CNc1cc2c(Nc3cccc(Br)c3)ncnc2cn1 [PD 158780],remaining activity at 1.25 µM,[1]; Well no.=2499,99.1%
same,remaining activity at 3.75 µM,[2]; Well no.=2499,99.3%
CCC(=O)Nc1ccc2ncnc(Nc3cccc(Br)c3)c2c1 [PD 174265],remaining activity at 1.25 µM,[1]; Well no.=2501,101%
same,remaining activity at 3.75 µM,[2]; Well no.=2501,98.5%
"Cc1cc(I)ccc1Nc1c(C(=O)NOCC2CC2)cc(F)c(F)c1F [PD 198306 - N-(Cyclopropylmethoxy)-3,4,5-trifluoro-2-[(4-iodo-2-methylphenyl)amino]-benzamide]",remaining activity at 1.25 µM,[1]; Well no.=2582,92.1%
same,remaining activity at 3.75 µM,[2]; Well no.=2582,87.7%
CC(=O)c1c(C)c2cnc(Nc3ccc(N4CCNCC4)cn3)nc2n(C2CCCC2)c1=O [PD 0332991 (Palbociclib) HCl],remaining activity at 1.25 µM,[1]; Well no.=4667,99%
same,remaining activity at 3.75 µM,[2]; Well no.=4667,98%
CC(=O)c1c(C)c2cnc(Nc3ccc(N4CCNCC4)cn3)nc2n(C2CCCC2)c1=O [PD 0332991 (Palbociclib) Isethionate],remaining activity at 1.25 µM,[1]; Well no.=4882,101%
same,remaining activity at 3.75 µM,[2]; Well no.=4882,101%
C[C@@H](O)[C@H](N)c1nnc([C@H](CCC(N)=O)NC(=O)N[C@@H](CO)C(=O)O)o1 [PD-1-IN-17],remaining activity at 1.25 µM,[1]; Well no.=8741,102%
same,remaining activity at 3.75 µM,[2]; Well no.=8741,106%
COc1ccc(C2(O)OC(=O)C(c3ccc4c(c3)OCO4)=C2Cc2cc(OC)c(OC)c(OC)c2)cc1 (centres unmarked) [PD-156707],remaining activity at 1.25 µM,[1]; Well no.=5693,101%
same,remaining activity at 3.75 µM,[2]; Well no.=5693,104%
CCN(CC)CCCCNc1ncc2cc(-c3c(Cl)cccc3Cl)c(NC(=O)NC(C)(C)C)nc2n1 [PD-161570],remaining activity at 1.25 µM,[1]; Well no.=5413,99.1%
same,remaining activity at 3.75 µM,[2]; Well no.=5413,97.7%
COc1cc(OC)cc(-c2cc3cnc(N)nc3nc2NC(=O)NC(C)(C)C)c1 [PD-166866],remaining activity at 1.25 µM,[1]; Well no.=5912,96.4%
same,remaining activity at 3.75 µM,[2]; Well no.=5912,96.7%
Cc1cc(Nc2ncc3cc(-c4c(Cl)cccc4Cl)c(=O)n(C)c3n2)ccc1F [PD-180970],remaining activity at 1.25 µM,[1]; Well no.=5604,100%
same,remaining activity at 3.75 µM,[2]; Well no.=5604,96.4%
Cc1cc(Cn2c(=O)n(Cc3cnc(C)s3)c(=O)c3cc(S(=O)(=O)NC4(C)CC4)ccc32)n(C)n1 [PDD 00017273],remaining activity at 1.25 µM,[1]; Well no.=8182,105%
same,remaining activity at 3.75 µM,[2]; Well no.=8182,98.5%
COc1cc2nccc(Oc3ccc(NC(=S)NC(=O)c4ccccc4C)cc3)c2cc1OC [PDGF RTK Inhibitor],remaining activity at 1.25 µM,[1]; Well no.=2509,104%
same,remaining activity at 3.75 µM,[2]; Well no.=2509,101%
